According to article PMC8989888, “Development of optimized drug-like small molecule inhibitors of the SARS-CoV-2 3CL protease for treatment of COVID-19” (Nature Communications, 2022):
Several values for one entry are separate records, joined by “and”; a condition that tells them apart may be missing. Identical values can stand only once. Like-named read-outs stand apart in the source and are kept apart here.

Experiments:
SARS-CoV-2 3CL protease [1] = biological target: T1, SARS-CoV-2 3CL protease (Severe acute respiratory syndrome coronavirus 2, UniProt P0DTD1); experiment: biochemical; conditions: for % SARS-CoV-2 3CL activity: 200 nM protease
SARS-CoV-2 3CL protease [2] = biological target: T1, SARS-CoV-2 3CL protease; type: binding
SARS-CoV-2 3CL protease [3] = biological target: T1, SARS-CoV-2 3CL protease; type: binding; remark: listed apart in the source
human chymotrypsin = experiment: Chymotrypsin activity assay (Panc-1 cell lysate); type: biochemical
SARS-CoV-2 = experiment: microbe, parasite or virus in culture; type: cell-based
[4] = tested on: Influenza A H1N1 (strain: California/07/2009); experiment: microbe, parasite or virus in culture; type: cell-based; conditions: Influenza A virus, H1N1, MDCK, read-out: Influenza A (H1N1) MDCK EC50
SARS-CoV-2 3CL protease [5] = biological target: T1, SARS-CoV-2 3CL protease; experiment: biochemical
SARS-CoV-2 3CL protease [6] = biological target: T1, SARS-CoV-2 3CL protease; experiment: cell-based

O=C(Oc1cncc(Cl)c1)c1cccs1 [MAC-5576, reference compound]
IC50 (SARS-CoV-2 3CL protease [1]; IC50): 93 nM | IC50 (SARS-CoV-2 3CL protease [1]; SARS-CoV-2 3CLpro IC50): 10 nM | binding stoichiometry (SARS-CoV-2 3CL protease [2]): 1.2 ± 0.2 | binding to 3CL protease by mass spectrometry (in words) (SARS-CoV-2 3CL protease [3]): one-to-one complex | Normalized chymotrypsin activity (human chymotrypsin): 1.078 and 0.9826 and 0.9946 | % SARS-CoV-2 inhibition (SARS-CoV-2): -2% | EC50, inhibition of SARS-CoV-2 viral replication (SARS-CoV-2): did not

NC(=O)c1ncn([C@@H]2O[C@H](CO)[C@@H](O)[C@H]2O)n1 [Ribavirin, reference compound]
EC50 [4]: 3200 nM

O=C(N[C@@H](CC1CCCCC1)C(=O)N[C@@H](C[C@@H]1CCNC1=O)C(O)S(=O)(=O)O)OCc1ccccc1 (stereo partly drawn) [SL-4-241]
IC50 (SARS-CoV-2 3CL protease [1]; 20 nM protease, read-out: SARS-CoV-2 3CLpro IC50): 75 nM | normalized activity, dose-response curve (Figure S16) (SARS-CoV-2 3CL protease [1]; Concentration of inhibitor (nM) 0.19382): 94.2892 and 94.3168 | normalized activity, dose-response curve (Figure S16) (SARS-CoV-2 3CL protease [1]; Concentration of inhibitor (nM) 0.49485): 87.5254 and 99.9152 | normalized activity, dose-response curve (Figure S16) (SARS-CoV-2 3CL protease [1]; Concentration of inhibitor (nM) 0.79588): 89.3075 and 94.6561 | normalized activity, dose-response curve (Figure S16) (SARS-CoV-2 3CL protease [1]; Concentration of inhibitor (nM) 1.09691): 90.077 and 87.1492 | normalized activity, dose-response curve (Figure S16) (SARS-CoV-2 3CL protease [1]; Concentration of inhibitor (nM) 1.39794): 78.3315 and 75.5284 | normalized activity, dose-response curve (Figure S16) (SARS-CoV-2 3CL protease [1]; Concentration of inhibitor (nM) 1.69897): 69.502 and 62.8473 | normalized activity, dose-response curve (Figure S16) (SARS-CoV-2 3CL protease [1]; Concentration of inhibitor (nM) 2): 41.1102 and 41.9808 | normalized activity, dose-response curve (Figure S16) (SARS-CoV-2 3CL protease [1]; Concentration of inhibitor (nM) 2.30103): 10.8147 and 10.0871 | normalized activity, dose-response curve (Figure S16) (SARS-CoV-2 3CL protease [1]; Concentration of inhibitor (nM) 2.60206): 3.241 and 2.3258 | normalized activity, dose-response curve (Figure S16) (SARS-CoV-2 3CL protease [1]; Concentration of inhibitor (nM) -0.10721): 98.5824 and 101.484 | normalized activity, dose-response curve (Figure S16) (SARS-CoV-2 3CL protease [1]; Concentration of inhibitor (nM) -0.40824): 100 | observed inactivation rate vs compound concentration (Figure S19, replicate values) (SARS-CoV-2 3CL protease [5]): 0.0986 and 0.0638 and 0.0852 and 0.1375 and 0.0874 and 0.0292 and 0.1342 and 0.0676 and 0.0349 and 0.0089 and 0.0058 and 0.057 and 0.065 and 0.0135 and 0.036 and 0.0158 and 0.0274 and 0.003 and 0.0091 and 0.01 and -0.00355 | kinact/KI (SARS-CoV-2 3CL protease [5]; read-out: SARS-CoV-2 3CLpro kinact/KI): 23300 M⁻¹ s⁻¹ | binding to 3CL protease by mass spectrometry (in words) (SARS-CoV-2 3CL protease [3]): blocked the covalent binding of 10 equivalents of compound 4 | EC50 (SARS-CoV-2; Severe acute respiratory syndrome coronavirus 2, Vero C1008, read-out: SARS-CoV-2 Vero E6 EC50): 17000 nM

CN(C)S(=O)(=O)c1ccc(C(=O)Oc2cc(Cl)c[nH]c2=O)cc1 [Z97]
Normalized SARS-CoV-2 3CL protease activity (SARS-CoV-2 3CL protease [1]; 0.2 µM protease with 50 µM tested compound, replicates): 0.9508 and 0.9056 and 0.9639 | Absorbance (crystal violet), SARS-CoV-2 3CLpro (SARS-CoV-2 3CL protease [6]): 0.1516 and 0.1477

O=c1c2ccccc2[se]n1-c1ccccc1 [ebselen, reference compound]
% SARS-CoV-2 3CL activity (SARS-CoV-2 3CL protease [1]; log10[nM] 0.404879, replicates): 89.3778% and 107.442% and 103.181% | % SARS-CoV-2 3CL activity (SARS-CoV-2 3CL protease [1]; log10[nM] 0.882, replicates): 94.9547% and 93.3775% and 98.4402% | % SARS-CoV-2 3CL activity (SARS-CoV-2 3CL protease [1]; log10[nM] 1.35912, replicates): 94.2663% and 88.5936% and 99.7037% | % SARS-CoV-2 3CL activity (SARS-CoV-2 3CL protease [1]; log10[nM] 1.83624, replicates): 88.0185% and 85.2126% and 81.8055% | % SARS-CoV-2 3CL activity (SARS-CoV-2 3CL protease [1]; log10[nM] 2.31336, replicates): 61.5633% and 42.9069% and 50.6187% | % SARS-CoV-2 3CL activity (SARS-CoV-2 3CL protease [1]; log10[nM] 2.79048, replicates): 10.2823% and 8.339% and 9.272% | % SARS-CoV-2 3CL activity (SARS-CoV-2 3CL protease [1]; log10[nM] 3.26761, replicates): 7.59% and 9.629% and 7.886% | % SARS-CoV-2 3CL activity (SARS-CoV-2 3CL protease [1]; log10[nM] 3.74473, replicates): 6.213% and 7.476% and 5.15% | % SARS-CoV-2 3CL activity (SARS-CoV-2 3CL protease [1]; log10[nM] 4.22185, replicates): 3.895% and 5.307% and 2.98% | % SARS-CoV-2 3CL activity (SARS-CoV-2 3CL protease [1]; log10[nM] 4.69897, replicates): -2.597% and 1.403% and 1.1938% | % SARS-CoV-2 3CL activity (SARS-CoV-2 3CL protease [1]; log10[nM] -0.0722425, replicates): 107.261% and 104.787% and 112.511% | % SARS-CoV-2 3CL activity (SARS-CoV-2 3CL protease [1]; log10[nM] -0.549364, replicates): 92.7537% and 98.0597% and 109.187% | binding stoichiometry (SARS-CoV-2 3CL protease [2]; ITC): didn’t reach saturation until a high molar ratio | binding to 3CL protease by mass spectrometry (in words) (SARS-CoV-2 3CL protease [3]): binding of multiple ebselen molecules to each 3CL protease molecule | Normalized chymotrypsin activity (human chymotrypsin; 10µM compound, 100 µg Panc-1 cell lysate, replicates): 0.8849 and 0.7812 and 0.7681 | EC50 (SARS-CoV-2; Severe acute respiratory syndrome coronavirus 2, Vero C1008, 72 h, read-out: EC50, inhibition of SARS-CoV-2 viral replication): 800 nM
